Measurements reported in patent US8188059B2, “Compounds and methods for modulating expression of GCGR” (Isis Pharmaceuticals, Inc., priority 2006, dated 2012).
Strand notation (5' to 3'): a small letter for the sugar, then the base; units joined by * are phosphorothioate-linked, units joined directly phosphodiester-linked; [ ] holds rarer units or linkages, { } end groups; capitals alone tell only the bases. e = 2'-O-(2-methoxyethyl) (MOE); [5mC] = 5-methylcytosine; d = 2'-deoxy (DNA)

Tested on: PCSK9 mRNA
Format: cell-based, human
Conditions: Hep3B cells, 100 nM, relative to untreated control cells; for % Inhib (PCSK9 mRNA): 0 = no reduction observed
Protocol: When cells reached appropriate confluency, they were treated with oligonucleotide using LIPOFECTIN® as described. […] Cells were treated and data were obtained in duplicate or triplicate. […] Cells were harvested 16-24 hours after oligonucleotide treatment.
Short antisense compounds targeted to a PCSK9 nucleic acid were tested for their effects on PCSK9 mRNA in vitro. The Isis No, gapmer motif and SEQ ID NO of each short antisense compound are shown again in Table 75. Cultured Hep3B cells were treated with 100 nM of short antisense compound. 5-10-5 MOE gapmers targeted to a PCSK9 nucleic acid were used as positive controls. After the treatment period, RNA was isolated from the cells and PCSK9 mRNA levels were measured by quantitative real-time PCR, as described herein. PCSK9 mRNA levels were adjusted according to total RNA content as measured by RIBOGREEN®. Results are presented in Table 75 as percent inhibition of PCSK9 (% Inhib), relative to untreated control cells.

| Substance | % Inhib (PCSK9 mRNA) [%] | % Inhibition Range (PCSK9 mRNA) |
| --- | --- | --- |
| 400320 (e[5mC]*e[5mC]*dG*dA*dA*dT*dA*dA*dA*d[5mC]*dT*d[5mC]*e[5mC]*eA; antisense) [compound 400320] | 0 | – |
| 400321 (eT*e[5mC]*d[5mC]*dG*dA*dA*dT*dA*dA*dA*d[5mC]*dT*e[5mC]*e[5mC]; antisense) [compound 400321] | 0 | – |
| 400322 (eT*eT*d[5mC]*d[5mC]*dG*dA*dA*dT*dA*dA*dA*d[5mC]*eT*e[5mC]; antisense) [compound 400322] | 0 | – |
| 400323 (eG*e[5mC]*d[5mC]*dA*dG*dG*dG*dG*d[5mC]*dA*dG*d[5mC]*eA*eG; antisense) [compound 400323] | 0 | – |
| 400324 (eG*eA*dG*dT*dA*dG*dA*dG*dG*d[5mC]*dA*dG*eG*e[5mC]; antisense) [compound 400324] | 7 | – |
| 400325 (e[5mC]*e[5mC]*d[5mC]*d[5mC]*dA*dA*dA*dG*dT*d[5mC]*d[5mC]*d[5mC]*e[5mC]*eA; antisense) [compound 400325] | 4 | – |
| 400326 (eT*e[5mC]*d[5mC]*d[5mC]*d[5mC]*dA*dA*dA*dG*dT*d[5mC]*d[5mC]*e[5mC]*e[5mC]; antisense) [compound 400326] | 0 | – |
| 400328 (eA*e[5mC]*dG*dT*dG*dG*dG*d[5mC]*dA*dG*d[5mC]*dA*eG*e[5mC]; antisense) [compound 400328] | 13 | 10-20% |
| 400329 (e[5mC]*eA*d[5mC]*dG*dT*dG*dG*dG*d[5mC]*dA*dG*d[5mC]*eA*eG; antisense) [compound 400329] | 14 | 10-20% |
| 400332 (e[5mC]*eA*dG*dG*dG*dA*dA*d[5mC]*d[5mC]*dA*dG*dG*e[5mC]*e[5mC]; antisense) [compound 400332] | 0 | – |
| 400333 (eT*e[5mC]*dA*dG*dG*dG*dA*dA*d[5mC]*d[5mC]*dA*dG*eG*e[5mC]; antisense) [compound 400333] | 0 | – |
| 400334 (e[5mC]*eT*d[5mC]*dA*dG*dG*dG*dA*dA*d[5mC]*d[5mC]*dA*eG*eG; antisense) [compound 400334] | 0 | – |
| 400335 (e[5mC]*e[5mC]*dT*d[5mC]*dA*dG*dG*dG*dA*dA*d[5mC]*d[5mC]*eA*eG; antisense) [compound 400335] | 0 | – |
| 400336 (eT*e[5mC]*d[5mC]*dT*d[5mC]*dA*dG*dG*dG*dA*dA*d[5mC]*e[5mC]*eA; antisense) [compound 400336] | 4 | – |
| 400337 (eG*eT*d[5mC]*d[5mC]*dT*d[5mC]*dA*dG*dG*dG*dA*dA*e[5mC]*e[5mC]; antisense) [compound 400337] | 0 | – |
| 400338 (eG*eG*dT*d[5mC]*d[5mC]*dT*d[5mC]*dA*dG*dG*dG*dA*eA*e[5mC]; antisense) [compound 400338] | 9 | – |
| 400339 (eT*eG*dG*dT*d[5mC]*d[5mC]*dT*d[5mC]*dA*dG*dG*dG*eA*eA; antisense) [compound 400339] | 0 | – |
| 400340 (e[5mC]*eT*dG*dG*dT*d[5mC]*d[5mC]*dT*d[5mC]*dA*dG*dG*eG*eA; antisense) [compound 400340] | 0 | – |
| 400341 (eG*e[5mC]*dT*dG*dG*dT*d[5mC]*d[5mC]*dT*d[5mC]*dA*dG*eG*eG; antisense) [compound 400341] | 0 | – |
| 400342 (eG*eT*dG*d[5mC]*dT*dG*dG*dG*dG*dG*dG*d[5mC]*eA*eG; antisense) [compound 400342] | 0 | – |
| 400343 (eG*eG*dT*dG*d[5mC]*dT*dG*dG*dG*dG*dG*dG*e[5mC]*eA; antisense) [compound 400343] | 0 | – |
| 400344 (eG*eG*dG*dT*dG*d[5mC]*dT*dG*dG*dG*dG*dG*eG*e[5mC]; antisense) [compound 400344] | 0 | – |
| 400345 (eT*eG*dG*dG*dT*dG*d[5mC]*dT*dG*dG*dG*dG*eG*eG; antisense) [compound 400345] | 0 | – |
| 400346 (eG*eA*dG*d[5mC]*dA*dG*d[5mC]*dT*d[5mC]*dA*dG*d[5mC]*eA*eG; antisense) [compound 400346] | 5 | – |

| Substance | % Inhib (PCSK9 mRNA) [%] | % Inhibition Range (PCSK9 mRNA) |
| --- | --- | --- |
| 400347 (antisense eG*eG*dA*dG*d[5mC]*dA*dG*d[5mC]*dT*d[5mC]*dA*dG*e[5mC]*eA) [compound 400347] | 0 | – |
| 400348 (antisense eT*eG*dG*dA*dG*d[5mC]*dA*dG*d[5mC]*dT*d[5mC]*dA*eG*e[5mC]) [compound 400348] | 0 | – |
| 400349 (antisense e[5mC]*eT*dG*dG*dA*dG*d[5mC]*dA*dG*d[5mC]*dT*d[5mC]*eA*eG) [compound 400349] | 13 | 10-20% |
| 400350 (antisense e[5mC]*e[5mC]*d[5mC]*dT*d[5mC]*dA*d[5mC]*d[5mC]*d[5mC]*d[5mC]*d[5mC]*dA*eA*eA) [compound 400350] | 15 | 10-20% |
| 400351 (antisense eA*e[5mC]*d[5mC]*d[5mC]*dT*d[5mC]*dA*d[5mC]*d[5mC]*d[5mC]*d[5mC]*d[5mC]*eA*eA) [compound 400351] | 14 | 10-20% |
| 400354 (antisense eG*eA*d[5mC]*dA*d[5mC]*d[5mC]*d[5mC]*dT*d[5mC]*dA*d[5mC]*d[5mC]*e[5mC]*e[5mC]) [compound 400354] | 19 | 10-20% |
| 400355 (antisense eA*eG*dA*d[5mC]*dA*d[5mC]*d[5mC]*d[5mC]*dT*d[5mC]*dA*d[5mC]*e[5mC]*e[5mC]) [compound 400355] | 0 | – |
| 400356 (antisense eT*eA*dG*dA*d[5mC]*dA*d[5mC]*d[5mC]*d[5mC]*dT*d[5mC]*dA*e[5mC]*e[5mC]) [compound 400356] | 0 | – |
| 400357 (antisense eT*eG*dG*d[5mC]*dA*dG*d[5mC]*dA*dG*dG*dA*dA*eG*e[5mC]) [compound 400357] | 0 | – |
| 400358 (antisense eA*eT*dG*dG*d[5mC]*dA*dG*d[5mC]*dA*dG*dG*dA*eA*eG) [compound 400358] | 12 | 10-20% |
| 400359 (antisense e[5mC]*eA*dT*dG*dG*d[5mC]*dA*dG*d[5mC]*dA*dG*dG*eA*eA) [compound 400359] | 0 | – |
| 400360 (antisense eG*e[5mC]*dA*dT*dG*dG*d[5mC]*dA*dG*d[5mC]*dA*dG*eG*eA) [compound 400360] | 38 | 30-40% |
| 400361 (antisense eG*eG*d[5mC]*dA*dG*d[5mC]*dA*dG*dA*dT*dG*dG*e[5mC]*eA) [compound 400361] | 2 | – |
| 400362 (antisense e[5mC]*eG*dG*d[5mC]*dA*dG*d[5mC]*dA*dG*dA*dT*dG*eG*e[5mC]) [compound 400362] | 16 | 10-20% |
| 400363 (antisense e[5mC]*e[5mC]*dG*dG*d[5mC]*dA*dG*d[5mC]*dA*dG*dA*dT*eG*eG) [compound 400363] | 8 | – |
| 400364 (antisense eT*e[5mC]*d[5mC]*dG*dG*d[5mC]*dA*dG*d[5mC]*dA*dG*dA*eT*eG) [compound 400364] | 0 | – |
| 400365 (antisense e[5mC]*eT*d[5mC]*d[5mC]*dG*dG*d[5mC]*dA*dG*d[5mC]*dA*dG*eA*eT) [compound 400365] | 25 | 20-30% |
| 400366 (antisense eG*e[5mC]*dT*d[5mC]*d[5mC]*dG*dG*d[5mC]*dA*dG*d[5mC]*dA*eG*eA) [compound 400366] | 15 | 10-20% |
| 400367 (antisense eG*eG*d[5mC]*dT*d[5mC]*d[5mC]*dG*dG*d[5mC]*dA*dG*d[5mC]*eA*eG) [compound 400367] | 12 | 10-20% |
| 400368 (antisense e[5mC]*eG*dG*d[5mC]*dT*d[5mC]*d[5mC]*dG*dG*d[5mC]*dA*dG*e[5mC]*eA) [compound 400368] | 11 | 10-20% |
| 400369 (antisense e[5mC]*e[5mC]*dG*dG*d[5mC]*dT*d[5mC]*d[5mC]*dG*dG*d[5mC]*dA*eG*e[5mC]) [compound 400369] | 0 | – |
| 400370 (antisense eG*e[5mC]*d[5mC]*dG*dG*d[5mC]*dT*d[5mC]*d[5mC]*dG*dG*d[5mC]*eA*eG) [compound 400370] | 13 | 10-20% |
| 400371 (antisense eA*eG*dT*dT*dA*d[5mC]*dA*dA*dA*dA*dG*d[5mC]*eA*eA) [compound 400371] | 0 | – |
